In patent US8324268B2, “Substituted furancarboxamides, and use thereof” (AiCuris GmbH & Co. KG, priority 2008, dated 2012):

Key:
Type in all cases: cell-based
[1] = system: HIV-1NL4-3 K103N-Y181C; assay: Light assay with inhibitor-resistant HI reporter virus in MT4 7F2 cells; settings: Human immunodeficiency virus 1, read-out: EC50 (nM) MT4 7F2 cells HIV-1NL4-3 K103N-Y181C 2% FCS
Procedure: (§1) For the mixture for a 96-well MTP, 3 million MT4 7F2 cells are pelleted, suspended in 1 ml of RPMI 1640 medium without phenol red (Invitrogen, Karlsruhe, Germany)/10% FCS/10% AIM-V (Invitrogen, Karlsruhe, Germany) and incubated together with a suitable amount of the corresponding HIV-1NL4-3 reporter virus at 37° C. for 2 hours (pellet infection). Unadsorbed viruses are subsequently washed out with PBS, and the infected cells are pelleted again and suspended in 8 ml of RPMI 1640 medium without phenol red/2% or 10% FCS/10% AIM-V. 80 μl thereof are pipetted into each well of a white 96-well MTP with 20 μl of test substance in suitable dilution. To avoid edge effects, the wells on the edge of the MTP are not used for substance dilutions. The second vertical row of the MTP contains only infected cells (virus control) and the eleventh vertical row only uninfected cells (cell control), in each case in RPMI 1640 medium without phenol red/2% or 10% FCS/10% AIM-V. The other wells of the MTP contain the compounds of the invention in various concentrations starting from the third vertical row, from which the test substances are diluted in 3-fold steps up to the tenth vertical row 3^7-fold. The test substances are dissolved in DMSO, whereby the final DMSO concentration in the test mixture is 1%. The test mixtures are incubated at 37° C./5% CO2 for five days and, after the addition of 15 μl of Lu164 substrate (5 mg/ml coelenterazine dissolved in 30 μM glutathione/DMSO, 100 mM NaCl, 1M MES, 100 mM glutathione), evaluated by luminometry. The resulting values are in the region of 1 000 000 RLUs (relative light units) for the virus control and 300 to 400 RLUs for the cell control. The EC50 values of the test substances are determined as the concentration at which the virus replication measured in RLUs is 50% of the untreated infected cells.

[2] = system: HIV-1LAI; assay: H9 assay with wild-type HIV-1 (HIV-1LAI supernatant infection, AlamarBlue); settings: Human immunodeficiency virus 1, H9 cells, 10% FCS
Procedure: For the mixture for a 96-well MTP, 3 million PBLs are pelleted, suspended in 1 ml of RPMI 1640 medium/10% FCS and incubated together with a suitable amount of HIV-1LAI (NIH AIDS Research & Reference Reagent Program, Germantown, USA) at 37° C. for 2 hours (pellet infection). Unadsorbed viruses are subsequently washed out with PBS, and the infected cells are pelleted again and suspended in 18 ml of RPMI 1640 medium/10% FCS/interleukin-2 (40 U/ml). 180 μl thereof are pipetted into each well of a white 96-well MTP with 20 μl of test substance in suitable dilution. Alternatively, after preparation of the substance dilutions in the MTP, the HIV is pipetted in together with the cells and is not washed out again (supernatant infection). In order to avoid edge effects, the wells at the edge of the MTP are not used for substance dilutions. The second vertical row of the MTP contains only infected cells (virus control) and the eleventh vertical row only uninfected cells (cell control), in each case in RPMI 1640 medium/10% FCS/interleukin-2 (40 U/ml). The other wells of the MTP contain the compounds of the invention in various concentrations starting from the third vertical row, from which the test substances are diluted in 3-fold steps up to the tenth vertical row 3^7-fold. The test substances are dissolved in DMSO, whereby the final DMSO concentration in the test mixture is 1%. The test mixtures are incubated at 37° C./5% CO2. After 5 and 7 days, 50 μl of cell-free supernatant are removed from each well to determine the amount of p24 present by means of a p24 ELISA (HIV-1 p24^CA Antigen Capture Assay Kit, NCI-Frederick Cancer Research and Development Center, Frederick, USA). From the resulting values of the photometric evaluation (450/620 nm) the EC50 values of the test substances are determined as the concentration at which the amount of p24 is 50% of the untreated infected cells.
Alternatively, H9 cells (ATCC, Wesel, Germany) are employed instead of PBLs for testing the test substances. H9 cells are incubated in RPMI 1640 medium with 2% or 10% FCS as a HIV-ILAI supernatant infection at 37° C./5% CO2, (20 μl of substance dilution and 80 μl of cells/virus per well) in accordance with the pattern described above for 5 days. Subsequently, 10 μl of AlamarBlue® (Invitrogen, Karlsruhe, Germany) are added to each well, and the MTPs are incubated at 37° C. for 3 hours before the fluorimetric evaluation takes place (544/590 nm). The resulting values are about 40 000 for the untreated uninfected cells and about 7000 for the untreated infected cells. In the low concentration range, the EC50 values of the test substances are determined as the concentration at which the fluorescence is 50% of the untreated uninfected cells (in each case subtracting the values of the untreated infected cells). In addition, in the high concentration range, the CC50 values of the test substances are determined as the concentration at which the fluorescence is 50% of the untreated uninfected cells (in each case subtracting the values of the untreated infected cells).

[3] = system: HIV-1NL4-3 wt; assay: Light assay with wild-type HI reporter virus in MT4 7F2 cells; settings: Human immunodeficiency virus 1, 2% FCS
Procedure: as §1

SMILES	EC50 [1]	EC50 [2]	EC50 [3]
N#Cc1cccc(-c2oc(C(=O)N3CCNC(=O)C3)cc2-c2cc(F)cc(Cl)c2)c1 [Example 8, 3-{3-(3-Chloro-5-fluorophenyl)-5-[(3-oxopiperazin-1-yl)carbonyl]furan-2-yl}benzenecarbonitrile]	160 nM	7 nM	1 nM
COc1cccc(-c2oc(C(=O)N3CNC(=O)C3)cc2-c2cccc(Cl)c2)c1 [Example 27, 1-{[4-(3-Chlorophenyl)-5-(3-methoxyphenyl)furan-2-yl]carbonyl}imidazolidin-4-one]	700 nM	200 nM	14 nM
N#Cc1cccc(-c2oc(C(=O)N3CNC(=O)C3)cc2-c2cc(F)cc(Cl)c2)c1 [Example 12, 3-{3-(3-Chloro-5-fluorophenyl)-5-[(4-oxoimidazolidin-1-yl)carbonyl]furan-2-yl}benzenecarbonitrile]	163 nM	30 nM	2 nM
N#Cc1cc(F)cc(-c2cc(C(=O)N3CNC(=O)C3)oc2-c2cccc(Cl)c2)c1 [Example 32, 3-{2-(3-Chlorophenyl)-5-[(4-oxoimidazolidin-1-yl)carbonyl]furan-3-yl}-5-fluorobenzenecarbonitrile]	150 nM	70 nM	2 nM
O=C1CN(C(=O)c2cc(-c3cc(Cl)ccc3F)c(-c3cccc(Cl)c3)o2)CCN1 [Example 13, 4-{[4-(5-Chloro-2-fluorophenyl)-5-(3-chlorophenyl)furan-2-yl]carbonyl}piperazin-2-one]	325 nM	160 nM	15 nM
O=C1CN(C(=O)c2cc(-c3cccc(Cl)c3)c(-c3ccc(F)cc3)o2)CCN1 [Example 6, 4-{[4-(3-Chlorophenyl)-5-(4-fluorophenyl)furan-2-yl]carbonyl}piperazin-2-one]	283 nM	400 nM	48 nM
O=C1CN(C(=O)c2cc(-c3cccc(Cl)c3)c(-c3ccc(F)c(Cl)c3)o2)CN1 [Example 25, 1-{[5-(3-Chloro-4-fluorophenyl)-4-(3-chlorophenyl)furan-2-yl]carbonyl}imidazolidin-4-one]	250 nM	225 nM	18 nM
N#Cc1cccc(-c2oc(C(=O)N3CC[C@@H](O)C3)cc2-c2cc(F)cc(Cl)c2)c1 [Example 10, 3-[3-(3-Chloro-5-fluorophenyl)-5-{[(3R)-3-hydroxypyrrolidin-1-yl]carbonyl}furan-2-yl]benzenecarbonitrile]	183 nM	14 nM	1 nM
O=C1CN(C(=O)c2cc(-c3cc(F)cc(Cl)c3)c(-c3ccc(F)c(Cl)c3)o2)CCN1 [Example 7, 4-{[5-(3-Chloro-4-fluorophenyl)-4-(3-chloro-5-fluorophenyl)furan-2-yl]carbonyl}piperazin-2-one]	186 nM	46 nM	5 nM
N#Cc1cc(-c2oc(C(=O)N3CNC(=O)C3)cc2-c2cccc(Cl)c2)ccc1F [Example 26, 5-{3-(3-Chlorophenyl)-5-[(4-oxoimidazolidin-1-yl)carbonyl]furan-2-yl}-2-fluorobenzenecarbonitrile]	250 nM	150 nM	20 nM
N#Cc1cccc(-c2oc(C(=O)N3CC[S+]([O-])C3)cc2-c2cc(F)cc(Cl)c2)c1 (stereo not drawn) [Example 3, 3-{3-(3-Chloro-5-fluorophenyl)-5-[(1-oxido-1,3-thiazolidin-3-yl)carbonyl]furan-2-yl}benzenecarbonitrile]	160 nM	4.5 nM	< 1.5 nM
O=C(c1cc(-c2cc(F)cc(Cl)c2)c(-c2ccc(F)c(Cl)c2)o1)N1CCOCC1 [Example 9, [5-(3-Chloro-4-fluorophenyl)-4-(3-chloro-5-fluorophenyl)furan-2-yl](morpholin-4-yl)methanone]	500 nM	100 nM	19 nM
N#Cc1cccc(-c2oc(C(=O)N3CCSC3)cc2-c2cc(F)cc(Cl)c2)c1 [Example 1, 3-[3-(3-Chloro-5-fluorophenyl)-5-(1,3-thiazolidin-3-ylcarbonyl)furan-2-yl]benzenecarbonitrile]	550 nM	65 nM	4.5 nM
O=C(c1cc(-c2cc(F)cc(Cl)c2)c(-c2ccc(F)c(Cl)c2)o1)N1CC[S+]([O-])C1 (stereo not drawn) [Example 4, [5-(3-Chloro-4-fluorophenyl-1)-4-(3-chloro-5-fluorophenyl)furan-2-yl](1-oxido-1,3-thiazolidin-3-yl)methanone]	261 nM	12 nM	< 1.5 nM
N#Cc1cc(F)cc(-c2cc(C(=O)N3CCOCC3)oc2-c2cccc(C#N)c2)c1 [Example 34, 3-[2-(3-Cyanophenyl)-5-(morpholin-4-ylcarbonyl)furan-3-yl]-5-fluorobenzenecarbonitrile]	300 nM	30 nM	< 1.5 nM
O=C1CN(C(=O)c2cc(-c3cc(F)cc(Cl)c3)c(-c3cccc(Cl)c3)o2)CN1 [Example 16, 1-{[4-(3-Chloro-5-fluorophenyl)-5-(3-chlorophenyl)furan-2-yl]carbonyl}imidazolidin-4-one]	200 nM	75 nM	2 nM
O=C1CN(C(=O)c2cc(-c3cc(F)cc(F)c3)c(-c3cccc(Cl)c3)o2)CCN1 [Example 17, 4-{[5-(3-Chlorophenyl)-4-(3,5-difluorophenyl)furan-2-yl]carbonyl}piperazin-2-one]	350 nM	135 nM	6 nM
O=C(c1cc(-c2cc(F)cc(Cl)c2)c(-c2ccc(F)c(Cl)c2)o1)N1CCSC1 [Example 2, [5-(3-Chloro-4-fluorophenyl)-4-(3-chloro-5-fluorophenyl)furan-2-yl](1,3-thiazolidin-3-yl)methanone]	1620 nM	135 nM	40 nM
N#Cc1cc(F)cc(-c2cc(C(=O)N3CNC(=O)C3)oc2-c2ccc(F)c(Cl)c2)c1 [Example 31, 3-{2-(3-Chloro-4-fluorophenyl)-5-[(4-oxoimidazolidin-1-yl)carbonyl]furan-3-yl}-5-fluorobenzenecarbonitrile]	80 nM	80 nM	8 nM
